Here are results for six compounds from US20080214568A1, “Pharmaceutical Combination Comprising an Antifungal Agent and an Active Substance Selected From Carveol, Eugenol, Thymol, Borneol, Carvacrol, and Alpha- and Beta-Ionones” (ADVANCED SCIENTIFIC DEVELOPMENTS, priority 2005, published 2008).

Read-outs that look alike come from different tables or passages of the source.

As usually defined, the MIC is the least concentration at which growth counts as inhibited. As usually defined, the MFC is the smallest concentration meeting the test's criterion for killing the fungus.

One experiment relates to Candida albicans. Nature of the experiment: Static tests: minimal inhibitory (MIC) and minimal fungicidal concentration (MFC) on Candida albicans strains. In kind it is cell-based. The procedure:
In Vitro Tests: Determination of Minimal Fungicidal Concentration (MFC) on Different Strains of Candida albicans
The experiment was carried out with several strains of Candida albicans having different susceptibilities isolated in the hospital environment from the mouth, vagina and digestive tract. […] An antifungal pharmaceutical composition was prepared by mixing fluconazole at different concentrations with carvacrol at a sub-inhibitory concentration of 0.3 g per liter of solution or excipient. This pharmaceutical composition according to the invention was named FLUC-P for potentiated fluconazole. In each case, antifungal activity was determined either with fluconazole alone, or with carvacrol alone, or with the composition of the invention.
Table 1 gives the results of static tests to determine the minimal fungicidal concentration (MFC) in μg/ml.
(§1) The experiment was carried out with several strains of Candida albicans having different susceptibilities isolated in the hospital environment. The antifungal agent used was voriconazole, an azole derivative and one of the most recent antifungals on the market. An antifungal pharmaceutical composition according to the invention was prepared by mixing voriconazole at different concentrations with carvacrol at a sub-inhibitory concentration of 0.3 g per liter of solution or excipient. This pharmaceutical composition according to the invention was named Vorico-P for potentiated voriconazole. In each case, antifungal activity was determined either with voriconazole alone, or with carvacrol alone, or with the composition of the invention.
Table 2 gives the results of static tests to determine the minimal inhibitory concentration (MIC) and the minimal fungicidal concentration (MFC) in μg/ml.
as §1, with “caspofungin, from the echinocandin family, which is” for “voriconazole, an azole derivative and”, “newest” for “most recent”, “caspofungin” for “voriconazole”, “Caspo-P” for “Vorico-P”, “caspofungin.” for “voriconazole.”
Table 3 gives the results of static tests to determine the minimal inhibitory concentration (MIC) and the minimal fungicidal concentration (MFC) in μg/ml.
The experiment was carried out with several strains of Candida albicans having different susceptibilities isolated in the hospital environment. The antifungal agent used was 5-fluorocytosine, from the pyrimidine group, which is one of the oldest antifungal agents. An antifungal pharmaceutical composition according to the invention was prepared by mixing 5-fluorocytosine at different concentrations with eugenol at a sub-inhibitory concentration of 0.5 g per liter of solution or excipient. This pharmaceutical composition according to the invention was named Fluoro-P for potentiated 5-fluorocytosine. In each case, antifungal activity was determined either with 5-fluorocytosine alone, or with eugenol alone, or with the composition of the invention.
Table 4 gives the results of static tests to determine the minimal inhibitory concentration (MIC) and the minimal fungicidal concentration (MFC) in μg/ml.

The subject of another experiment is Aspergillus niger. Nature of the experiment: Static tests: MIC and MFC on Aspergillus niger strains. In kind it is cell-based. The procedure:
The experiment was carried out with several strains of Aspergillus niger which were not susceptible to fluconazole. The antifungal agent used was fluconazole, an azole derivative and one of the most widely used antifungals. […] Aspergillosis, caused by microorganisms from the family Aspergillus sp, represents the most common and most difficult-to-treat infection. An antifungal pharmaceutical composition according to the invention was prepared by mixing fluconazole at different concentrations with carvacrol at a sub-inhibitory concentration of 0.25 g per liter of solution or excipient. This pharmaceutical composition according to the invention was named Fluc-P for potentiated fluconazole. In each case, antifungal activity was determined either with fluconazole alone, or with carvacrol alone, or with the composition of the invention.
Table 5 gives the results of static tests to determine the minimal inhibitory concentration (MIC) and the minimal fungicidal concentration (MFC) in μg/ml.

Experiment [1] deals with Candida albicans strain with moderate resistance to fluconazole. In kind it is in vivo, mice. To be noted: fluconazole alone 4 mg/kg/day, carvacrol alone 30 mg/kg/day; for survival: mice, gavage from 24 h post-infection, seven days, composition fluconazole 2 mg/kg + carvacrol 30 mg/kg, FIG. 2; for Candida albicans loads in kidney, lung and bone marrow: organs of mice which died during the experiment. An excerpt: FIG. 2 presents the results of in vivo tests in a systemic candidiasis model in experimentally infected mice either untreated, or treated with fluconazole alone, treated with carvacrol alone, or treated with a pharmaceutical composition according to the invention comprising fluconazole and carvacrol.
Groups of 15 mice were experimentally infected by intravenous injection of 10,000,000 cells (colony-forming units) of a Candida albicans strain with moderate resistance to fluconazole.
The first group was composed of control mice which were infected and untreated.
The second group was composed of infected mice treated by gavage, 24 h post-infection, with fluconazole alone at a dose of 4 mg/kg of body weight/day.
The third group was composed of infected mice treated by gavage, 24 h post-infection, with carvacrol alone at a dose of 30 mg/kg of body weight/day.
The fourth group was composed of infected mice treated by gavage, 24 h post-infection, with fluconazole 2 mg/kg of body weight and with carvacrol 30 mg/kg of body weight.
The duration of treatment was seven days for surviving animals. The survival rate was measured over time. […] All the other mice died between the second and seventh day post-infection.

On to `Nc1nc(=O)[nH]cc1F` [5-fluorocytosine], for which the MIC in the experiment with Candida albicans (Candida albicans, Example 4, resistant strain, 5-fluorocytosine alone) stood at 25 µg/mL; in the experiment with Candida albicans (Candida albicans, Example 4, susceptible strain, 5-fluorocytosine alone), 2.5 µg/mL. For the same compound, the “5-fluorocytosine concentration producing fungicidal activity versus fungistatic concentration of 5-fluorocytosine alone” value in the experiment on Candida albicans (resistant strains, with eugenol 0.5 mg/ml) is “five times lower”.

With `Cc1ccc(C(C)C)cc1O` [Carvacrol, carvacrol], the MFC in the experiment on Candida albicans (Candida albicans) came out at 1000 µg/mL; in the experiment on Candida albicans (Example 1, highly resistant strain, exponential growth phase, substance alone), 1000 µg/mL; with Candida albicans (Example 1, moderately resistant strain, exponential growth phase, substance alone) it was 1000 µg/mL; in the experiment on Candida albicans (Example 2, resistant strain, carvacrol alone) it was 1000 µg/mL; in the experiment with Candida albicans (Example 2, susceptible strain, carvacrol alone) it was 1000 µg/mL; with Candida albicans (Example 3, resistant strain, carvacrol alone) it was 1000 µg/mL. Also, the MFC with Candida albicans (Example 3, susceptible strain, carvacrol alone) was 1000 µg/mL; in the experiment on Aspergillus niger (Aspergillus niger), 500 µg/mL. Besides, the survival entry in experiment [1] is “died during the experiment”. Moreover, the “Candida albicans loads in kidney, lung and bone marrow” value in experiment [1] is “high loads”.

On to `CC[C@H](C)C[C@H](C)CCCCCCCCC(=O)N[C@H]1C[C@@H](O)[C@@H](NCCN)NC(=O)[C@@H]2[C@@H](O)CCN2C(=O)[C@H]([C@H](O)CCN)NC(=O)[C@H]([C@H](O)[C@@H](O)c2ccc(O)cc2)NC(=O)[C@@H]2C[C@@H](O)CN2C(=O)[C@H]([C@@H](C)O)NC1=O` [Caspofungin, caspofungin], for which the minimum inhibitory concentration (MIC) in the experiment on Candida albicans (Candida albicans, Example 3, resistant strain, caspofungin alone) was 3 µg/mL; in the experiment on Candida albicans (Candida albicans, Example 3, susceptible strain, caspofungin alone), < 0.05 µg/mL. Moreover, the “caspofungin concentration producing fungicidal activity versus fungistatic concentration of caspofungin alone” value in the experiment on Candida albicans (with carvacrol 0.3 mg/ml) is given as “at least six times lower”.

On to `C=CCc1ccc(O)c(OC)c1` [Eugenol, eugenol], for which the MFC with Candida albicans (Candida albicans, Example 4, resistant strain, eugenol alone, read-out: MFC) was determined as 2000 µg/mL; in the experiment with Candida albicans (Candida albicans, Example 4, susceptible strain, eugenol alone, read-out: MFC) it was 2000 µg/mL.

Turning to `OC(Cn1cncn1)(Cn1cncn1)c1ccc(F)cc1F` [Fluconazole, fluconazole], the MFC in the experiment on Candida albicans (Candida albicans, Example 1, highly resistant strain, exponential growth phase, substance alone, read-out: MFC) is > 300 µg/mL; with Candida albicans (Candida albicans, Example 1, moderately resistant strain, exponential growth phase, substance alone, read-out: MFC), 150 µg/mL; with Candida albicans (Candida albicans, Example 1, susceptible strain, exponential growth phase, substance alone, read-out: MFC) it was 0.5 µg/mL. The MIC in the experiment on Aspergillus niger (Example 5, 12 different strains of Aspergillus niger, fluconazole alone) was > 1000 µg/mL. The survival entry in experiment [1] is on record as “died during the experiment”. For the same compound, in experiment [1], the “Candida albicans loads in kidney, lung and bone marrow” value is recorded as “high loads”.

Regarding `C[C@@H](c1ncncc1F)[C@](O)(Cn1cncn1)c1ccc(F)cc1F` [Voriconazole, voriconazole], the minimum inhibitory concentration (MIC) with Candida albicans (Candida albicans, Example 2, resistant strain, voriconazole alone) is 10 µg/mL; in the experiment with Candida albicans (Candida albicans, Example 2, susceptible strain, voriconazole alone) it was < 0.05 µg/mL. Also, the “voriconazole concentration producing fungicidal activity versus fungistatic concentration of voriconazole alone” value with Candida albicans (resistant strains, with carvacrol 0.3 mg/ml) is given as “at least ten times lower”.
